The test system of assay [1] is T1, α-galactosidase TMG.
T1 construct: native, purified from fruiting bodies (Yunnan, China); monomer, 47 kDa by SDS-PAGE and gel filtration; inner peptides by LC-MS/MS GNVMVSLG, LLNMND, INVNDS; not cloned
Put plainly: p-nitrophenol release at […] nm; Grafit fit. The class given is biochemical, Tricholoma matsutake. Particulars: pH 4.6, 50 °C (standard assay); 1-10 mM substrate; apparent Km; unit Mm [sic].

The test system of assay [2] is T1, α-galactosidase TMG. The assay is described as follows: reducing sugar release ([…],5-dinitrosalicylic acid); Grafit fit. The class given is biochemical, Tricholoma matsutake. Particulars: 100 mM NaAc-HAc pH 4.6, 40 °C; 1-10 mM substrate; apparent Km; unit Mm [sic].

By Km is commonly meant the substrate concentration at which the rate is half of its maximum.

Take `O=[N+]([O-])c1ccc(O[C@H]2O[C@H](CO)[C@H](O)[C@H](O)[C@H]2O)cc1` [pNPGal, 4-Nitrophenyl α-D-galactopyranoside]: in the assay on α-galactosidase TMG [1], the Km is 0.99 mM.
In the case of `OC[C@H]1O[C@H](OC[C@H]2O[C@H](OC[C@H]3O[C@H](O[C@]4(CO)O[C@H](CO)[C@@H](O)[C@@H]4O)[C@H](O)[C@@H](O)[C@@H]3O)[C@H](O)[C@@H](O)[C@H]2O)[C@H](O)[C@@H](O)[C@H]1O` [stachyose], in the assay with α-galactosidase TMG [2], the Km came out at 3.5 mM.
As for `OC[C@H]1O[C@H](OC[C@H]2O[C@H](O[C@]3(CO)O[C@H](CO)[C@@H](O)[C@@H]3O)[C@H](O)[C@@H](O)[C@@H]2O)[C@H](O)[C@@H](O)[C@H]1O` [raffinose], the Km in the assay on α-galactosidase TMG [2] was 3.7 mM.

(Values after PMC6332393, “A Fungal α-Galactosidase from Tricholoma matsutake with Broad Substrate Specificity and Good Hydrolytic Activity on Raffinose Family Oligosaccharides” (Molecules, 2015).)
